Experimental data reported in US20260062422A1 (Halda Therapeutics OpCo, Inc., priority 2022, published 2026).

Columns and labels:
[1] = tested on: T-Rex 293 cell line SC3 cells having increased expression of androgen receptor protein due to exposure to doxycycline; assay: Cellular growth inhibition, T-Rex 293 SC3 cells with doxycycline (androgen receptor induced), CellTiter-Glo; type: cell-based; conditions: T-Rex 293 SC3 cells with 10 ng/mL doxycycline (increased androgen receptor expression)
Summary of the method: (§1)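 Cells of clone SC3 are seeded in charcoal-dextran-stripped serum medium with or without 10 ng/mL doxycycline to induce wild-type androgen receptor. After 24 h, serial compound dilutions are added at 0.5% DMSO and incubated 72 h at 37 °C. CellTiter-Glo 2.0 measures viability, giving GI50 values.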

[2] = tested on: T-Rex 293 cell line SC3 cells lacking increased expression of androgen receptor protein; assay: Cellular growth inhibition, T-Rex 293 SC3 cells without doxycycline, CellTiter-Glo; type: cell-based; conditions: T-Rex 293 SC3 cells not exposed to doxycycline, CellTiter-Glo 2.0
Summary of the method: as §1

[3] = tested on: VCaP cells; assay: Cellular growth inhibition assay for VCaP cells, CellTiter-Glo; type: cell-based, human; conditions: 72 hours treatment, CellTiter-Glo 2.0
Summary of the method: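 GI50 values come from four-parameter curve fits of luminescence data normalized to a zero baseline. Compound, in medium with 0.5% DMSO, was added one day after plating and left for 72 h before CellTiter-Glo 2.0 addition.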

[4] = tested on: T47D cells; assay: Cellular growth inhibition assay for T47D cells, CellTiter-Glo; type: cell-based, human; conditions: 72 hours treatment, CellTiter-Glo 2.0 cell viability
Summary of the method: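 Luminescence from CellTiter-Glo 2.0 after 72 h of compound exposure gives the viability signal. Cells grew in insulin-supplemented (0.2 units/mL) DMEM with 10% FBS and were treated one day after seeding at 0.5% DMSO. GI50 values come from four-parameter nonlinear regression.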

Structure (SMILES) | GI50 ([3]; Homo sapiens, VCaP, 72 h) | GI50 ([4]; Homo sapiens, T47D, 72 h) | GI50 [4] | GI50 [3] | GI50 ([1]; 72 h) | GI50 ([2]; 72 h) | GI50 ([2]; 72 hours) | GI50 ([1]; 72 hours)
Cc1sc2c(c1C)C(c1ccc(COC3CCN(c4ncc(C(=O)N[C@H]5C(C)(C)[C@H](Oc6ccc(C#N)c(Cl)c6)C5(C)C)cn4)CC3)cc1)=N[C@@H](C)c1nnc(C)n1-2 [Compound I-347] | > 3000 nM | > 3000 nM |  |  | > 3000 nM | > 3000 nM |  | 
Cc1sc2c(c1C)C(c1ccc(OC3CC4(CCN(c5ncc(C(=O)N[C@H]6C(C)(C)[C@H](Oc7ccc(C#N)c(Cl)c7)C6(C)C)cn5)CC4)C3)cc1)=N[C@@H](C)c1nnc(C)n1-2 [Compound I-391] | 1500 to 3000 nM | 500 to 1500 nM |  |  | < 500 nM | > 3000 nM |  | 
Cc1sc2c(c1C)C(c1ccc(CC3CC4(CCN(c5ccc(C(=O)N[C@H]6C(C)(C)[C@H](Oc7ccc(C#N)c(Cl)c7)C6(C)C)nc5)CC4)C3)cc1)=N[C@@H](C)c1nnc(C)n1-2 [Compound I-447] | 500 to 1500 nM | < 500 nM |  |  | < 500 nM | > 3000 nM |  | 
Cc1sc2c(c1C)C(c1ccc(CC[C@@H]3CC[C@@]4(CCCN(c5ncc(C(=O)N[C@H]6C(C)(C)[C@H](Oc7ccc(C#N)c(Cl)c7)C6(C)C)cn5)C4)C3)cc1)=N[C@H](Cc1ncco1)c1nnc(C)n1-2 [Compound I-252] | > 3000 nM | < 500 nM |  |  | < 500 nM | > 3000 nM |  | 
Cc1sc2c(c1C)C(c1ccc(N3CC(CC4CN(c5ncc(C(=O)N[C@H]6C(C)(C)[C@H](Oc7ccc(C#N)c(Cl)c7)C6(C)C)cn5)C4)C3)cc1)=N[C@@H](C)c1nnc(C)n1-2 [Compound I-514] | > 3000 nM | 500 to 1500 nM |  |  | < 500 nM | > 3000 nM |  | 
Cc1sc2c(c1C)C(c1ccc(CNC(=O)CNC(=O)c3ncc(C(=O)N[C@H]4C(C)(C)[C@H](Oc5ccc(C#N)c(Cl)c5)C4(C)C)cn3)cc1)=N[C@@H](Cc1ncco1)c1nnc(C)n1-2 [Compound I-292] | 500 to 1500 nM | > 3000 nM |  |  | > 3000 nM | > 3000 nM |  | 
Cc1sc2c(c1C)C(c1ccc(N3CC(C4CCCN(c5ncc(C(=O)N[C@H]6C(C)(C)[C@H](Oc7ccc(C#N)c(Cl)c7)C6(C)C)cn5)C4)C3)cc1)=N[C@@H](C)c1nnc(C)n1-2 (stereo partly drawn) [Compound I-473] | > 3000 nM |  | > 3000 nM |  | < 500 nM |  | > 3000 nM | 
Cc1sc2c(c1C)C(c1ccc([C@@H]3CCN(C(=O)[C@H]4CCCN(c5ncc(C(=O)N[C@H]6C(C)(C)[C@H](Oc7ccc(C#N)c(Cl)c7)C6(C)C)cn5)C4)C3)cc1)=N[C@@H](Cc1ncco1)c1nnc(C)n1-2 [Compound I-386] | > 3000 nM | 500 to 1500 nM |  |  | > 3000 nM | > 3000 nM |  | 
Cc1sc2c(c1C)C(c1ccc(N3CC4(CCN(c5ncc(C(=O)N[C@H]6C(C)(C)[C@H](Oc7ccc(C#N)c(Cl)c7)C6(C)C)cn5)CC4)C3)cc1)=NC(Cc1ncco1)c1nnc(C)n1-2 (stereo partly drawn) [Compound I-207] | 500 to 1500 nM | 500 to 1500 nM |  |  |  |  | > 3000 nM | < 500 nM
Cc1sc2c(c1C)C(c1ccc(Cl)cc1)=N[C@@H](CC(=O)NCCN1CCN(CC3CCN(c4ncc(C(=O)N[C@H]5C(C)(C)[C@H](Oc6ccc(C#N)c(Cl)c6)C5(C)C)cn4)CC3)CC1)c1nnc(C)n1-2 [Compound I-35, N-((1r,3r)-3-(3-chloro-4-cyanophenoxy)-2,2,4,4-tetramethylcyclobutyl)-2-(4-((4-(2-(2-((S)-4-(4-chlorophenyl)-2,3,9-trimethyl-6H-thieno[3,2-f][1,2,4]triazolo[4,3-a][1,4]diazepin-6-yl)acetamido)ethyl)piperazin-1-yl)methyl)piperidin-1-yl)pyrimidine-5-carboxamide] | 500 to 1500 nM | < 500 nM |  |  | 500 to 1500 nM | 500 to 1500 nM |  | 
CC[C@@H]1N=C(c2ccc(N3CC(CC4CCN(c5cnc(C(=O)N[C@H]6C(C)(C)[C@H](Oc7ccc(C#N)c(Cl)c7)C6(C)C)cn5)CC4)C3)cc2)c2c(sc(C)c2C)-n2c(C)nnc21 [Compound I-594] | > 3000 nM | 1500 to 3000 nM |  |  | > 3000 nM | > 3000 nM |  | 
Cc1sc2c(c1C)C(c1ccc([C@H]3C[C@@H](C[C@@H]4CCCN(c5ncc(C(=O)N[C@H]6C(C)(C)[C@H](Oc7ccc(C#N)c(Cl)c7)C6(C)C)cn5)C4)C3)cc1)=N[C@@H](Cc1ncco1)c1nnc(C)n1-2 [Compound I-401] |  |  | > 3000 nM | > 3000 nM |  |  | > 3000 nM | > 3000 nM
Cc1sc2c(c1C)C(c1ccc(C(C)(C)N3CC4(CCN(c5ncc(C(=O)N[C@H]6C(C)(C)[C@H](Oc7ccc(C#N)c(Cl)c7)C6(C)C)cn5)CC4)C3)cc1)=N[C@@H](Cc1ncco1)c1nnc(C)n1-2 [Compound I-438] |  |  | > 3000 nM | 500 to 1500 nM |  | 1500 to 3000 nM |  | < 500 nM
CC[C@@H]1N=C(c2ccc(CC3CCC4(C3)CN(c3ncc(C(=O)N[C@H]5C(C)(C)[C@H](Oc6ccc(C#N)c(Cl)c6)C5(C)C)cn3)CCO4)cc2)c2c(sc(C)c2C)-n2c(C)nnc21 (stereo partly drawn) [Compound I-615] |  |  | > 3000 nM | < 500 nM |  |  | < 500 nM | < 500 nM
Cc1sc2c(c1C)C(c1ccc([C@H]3CC[C@]4(C3)CN(c3ncc(C(=O)N[C@H]5C(C)(C)[C@H](Oc6ccc(C#N)c(Cl)c6)C5(C)C)cn3)CCO4)cc1)=N[C@@H](Cc1ncco1)c1nnc(C)n1-2 [Compound I-404] | > 3000 nM | > 3000 nM |  |  | > 3000 nM | > 3000 nM |  | 
Cc1sc2c(c1C)C(c1ccc(CCCOC3CCN(c4ncc(C(=O)N[C@H]5C(C)(C)[C@H](Oc6ccc(C#N)c(Cl)c6)C5(C)C)cn4)CC3)cc1)=C[C@H](Cc1ccncn1)c1nnc(C)n1-2 [Compound I-376] |  |  | < 500 nM | < 500 nM |  |  | < 500 nM | < 500 nM
Cc1sc2c(c1C)C(c1ccc(O[C@@H]3CCC4(CCN(c5ncc(C(=O)N[C@H]6C(C)(C)[C@H](Oc7ccc(C#N)c(Cl)c7)C6(C)C)cn5)CC4)C3)cc1)=N[C@@H](Cc1ncco1)c1nnc(C)n1-2 [Compound I-174] | 500 to 1500 nM | < 500 nM |  |  | < 500 nM | < 500 nM |  | 

Second part, led by results:

GI50 ([3]; Homo sapiens, VCaP, 72 h) | GI50 ([4]; Homo sapiens, T47D, 72 h) | GI50 [4] | GI50 [3] | Structure (SMILES) | GI50 ([1]; 72 h) | GI50 ([2]; 72 h) | GI50 ([2]; 72 hours) | GI50 ([1]; 72 hours)
< 500 nM | < 500 nM |  |  | Cc1sc2c(c1C)C(c1ccc(N3CC4(CCN(c5ncc(C(=O)N[C@H]6C(C)(C)[C@H](Oc7ccc(C#N)c(Cl)c7)C6(C)C)cn5)C4)C3)cc1)=NC(Cc1ncco1)c1nnc(C)n1-2 (stereo partly drawn) [Compound I-656] | < 500 nM | 500 to 1500 nM |  | 
< 500 nM | < 500 nM |  |  | Cc1sc2c(c1C)C(c1ccc(CCCOC3CCN(c4ncc(C(=O)N[C@H]5C(C)(C)[C@H](Oc6ccc(C#N)c(Cl)c6)C5(C)C)cn4)CC3)cc1)=N[C@@H](Cc1ccccn1)c1nnc(C)n1-2 [Compound I-212, N-[3-(3-chloro-4-cyano-phenoxy)-2,2,4,4-tetramethyl-cyclobutyl]-2-[4-[3-[4-[(9S)-4,5,13-trimethyl-9-(2-pyridylmethyl)-3-thia-1,8,11,12-tetrazatricyclo[8.3.0.02,6]trideca-2(6),4,7,10,12-pentaen-7-yl]phenyl]propoxy]-1-piperidyl]pyrimidine-5-carboxamide] | < 500 nM | > 3000 nM |  | 
< 500 nM | > 3000 nM |  |  | Cc1noc2c1-c1ccccc1C(c1ccc(OC3CC4(CCN(c5ncc(C(=O)N[C@H]6C(C)(C)[C@H](Oc7ccc(C#N)c(Cl)c7)C6(C)C)cn5)CC4)C3)cc1)=N[C@H]2Cc1ncco1 [Compound I-222] | < 500 nM | > 3000 nM |  | 
< 500 nM | < 500 nM |  |  | Cc1sc2c(c1C)C(c1ccc(CCN3CCC4(CCCN(c5ncc(C(=O)N[C@H]6C(C)(C)[C@H](Oc7ccc(C#N)c(Cl)c7)C6(C)C)cn5)C4)C3)cc1)=N[C@@H](Cc1ncco1)c1nnc(C)n1-2 (stereo partly drawn) [Compound I-147] | < 500 nM | 500 to 1500 nM |  | 
< 500 nM | < 500 nM |  |  | Cc1sc2c(c1C)C(c1ccc(-c3ncc(C4CCN(c5ncc(C(=O)N[C@H]6C(C)(C)[C@H](Oc7ccc(C#N)c(Cl)c7)C6(C)C)cn5)CC4)o3)cc1)=N[C@@H](Cc1ncco1)c1nnc(C)n1-2 [Compound I-442] | < 500 nM | > 3000 nM |  | 
< 500 nM | > 3000 nM |  |  | Cc1sc2c(c1C)C(c1ccc(OC3CC4(CCN(c5ncc(C(=O)N[C@H]6C(C)(C)[C@H](Oc7ccc(C#N)c(Cl)c7)C6(C)C)cn5)CC4)C3)cc1)=N/C(=C/c1ncco1)c1nnc(C)n1-2 [Compound I-230, N-[3-(3-chloro-4-cyano-phenoxy)-2,2,4,4-tetramethyl-cyclobutyl]-2-[2-[4-[(9E)-4,5,13-trimethyl-9-(oxazol-2-ylmethylene)-3-thia-1,8,11,12-tetrazatricyclo[8.3.0.02,6]trideca-2(6),4,7,10,12-pentaen-7-yl]phenoxy]-7-azaspiro[3.5]nonan-7-yl]pyrimidine-5-carboxamide] | < 500 nM | > 3000 nM |  | 
< 500 nM | < 500 nM |  |  | Cc1sc2c(c1C)C(c1ccc(NCC(=O)N3CCC(c4ncc(C(=O)N[C@H]5C(C)(C)[C@H](Oc6ccc(C#N)c(Cl)c6)C5(C)C)cn4)CC3)cc1)=N[C@H](Cc1ncco1)c1nnc(C)n1-2 [Compound I-275] | < 500 nM | < 500 nM |  | 
